The target in experiment [1] is Cathepsin B (Mus musculus, UniProt P10605). Nature of the experiment: Inhibition of cathepsin B in mouse B16F10 cells. Format: cell-based, B16-F10.
The target of experiment [2] is Cathepsin B (Homo sapiens, UniProt P07858). Kind of experiment: Inhibition of cathepsin B.
The test system of a further experiment is B16-F10. Kind of experiment: Cytotoxicity against mouse B16F10 cells by MTT assay. Format: functional. A general note: Tetrazolium assays rely on reduction of a dye to a coloured formazan, in cell work by metabolically active cells.

The record followed here is ChEMBL document CHEMBL1141634, “Cathepsin B inhibitory activities of phthalates isolated from a marine Pseudomonas strain” (Bioorg Med Chem Lett, 2008).

As a reminder, the IC50 is the concentration needed to halve the response being measured. A higher IC50 goes with weaker potency.

SMILES strings stand for the structures.

Chain of Cathepsin B (Mus musculus, UniProt P10605) (P10605 whole entry): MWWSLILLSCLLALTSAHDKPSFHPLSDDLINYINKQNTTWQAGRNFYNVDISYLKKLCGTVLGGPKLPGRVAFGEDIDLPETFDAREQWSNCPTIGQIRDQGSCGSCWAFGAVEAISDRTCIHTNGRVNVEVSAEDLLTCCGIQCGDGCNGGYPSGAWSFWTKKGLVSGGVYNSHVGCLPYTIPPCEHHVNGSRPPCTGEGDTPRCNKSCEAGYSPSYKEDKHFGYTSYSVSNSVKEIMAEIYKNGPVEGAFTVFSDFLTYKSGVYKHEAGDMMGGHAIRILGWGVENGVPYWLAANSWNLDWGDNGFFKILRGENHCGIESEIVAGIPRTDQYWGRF

Turning to `CCCC[C@@H](CC)COC(=O)c1ccccc1C(=O)OC[C@@H](CC)CCCC` [BIS(2-ETHYLHEXYL)PHTHALATE], the half-inhibitory concentration (IC50) against Cathepsin B [1] was 140 µM; against Cathepsin B [2], 380 µM. Besides, the Activity in the experiment with B16-F10 is recorded as 7.34%.

For `CCCCOC(=O)c1ccccc1C(=O)OCCCC` [DIBUTYL PHTHALATE], the IC50 worked out at 230 µM against Cathepsin B [1] and 420 µM on Cathepsin B [2]. Moreover, the Activity in the experiment on B16-F10 is 9.45%.
